Source: US8617872B2, “Compositions for culturing spirochetes” (priority 2000, dated 2013)

Experiments:
Assay type in all cases: cell-based
[1] = tested on: Leptospira; assay: Susceptibility testing of Leptospira isolated from a patient with symptoms of rheumatoid arthritis; conditions: for Antibiotic Susceptibility Results, SERUM: Leptospira culture from serum of rheumatoid arthritis patient; for Antibiotic Susceptibility Results, URINE: Leptospira culture from urine of rheumatoid arthritis patient
Description: (§1) This example describes the preparation of a pellet used for antimicrobial susceptibility testing of a culture sample. The procedure begins with a culture (e.g., prepared in the manner described in Example 2), where serum from a patient is inoculated in GSI-1 media and allowed to grow. In order to form pellet, an aliquot of this culture sample is placed in a microcentrifuge tube along with 10% SDS solution, and centrifuged at 14,000 g to disrupt the spirochetes and maximize the number of available eptiopic sites. The disrupted spirochetes were then cultured in an alternative growth medium made up of one part GSI-1 medium, one part 6.5% lactalbumin hydrolysate, one part 2% brain heart infusion, one part 10% pluronic fluid, and one part of the isolated (disrupted) spirochetes. This inoculated alternative growth medium was then allowed to incubate in the closed micro centrifuge tube until a distinctive pellet was observed (typically 7-14 days).
(§2) Following the observation of pellet formation, the tube was vortexed and incubated at 35° C. until a MacFarlane standard of between 8 to 12% turbidity was achieved. MICROSCAN antibiotic susceptibility microtiter plates were then inoculated with (e.g., 110 μl of) inoculum and allowed to incubate at 35° C. for 16-20 hours. The microtiter plates were then scanned for growth and respective sensitivity reaction (both the control well and the growth well).
This Example describes the diagnosis and treatment of a human patient with symptoms of rheumatoid arthritis. In particular, serum and urine samples from this patient were initially cultured on GSI-1 (e.g., as described in Example 2), and screened for the presence of spirochetes (e.g., as described in Example 3). […] These cultures were then used to produce pellets for antimicrobial susceptibility testing (e.g., as described in Example 6). The antimicrobial susceptibility tests were then carried out on each sample (e.g., as described in Example 7) with the antimicrobials listed below in Table 5.

[2] = tested on: Treponema isolate; assay: Antimicrobial susceptibility test (MICROSCAN plates) of a patient's Treponema isolate; conditions: Treponema infected patient's isolate; MICROSCAN plates, 35° C., 16-20 hours
Method: For susceptibility testing, the organisms harvested could be assayed using any suitable susceptibility assay (See, Example 7). In some embodiments of the present invention, MICROSCAN antibiotic susceptibility plates were inoculated and incubated. Following incubations, plates were scanned for growth and respective sensitivity reaction. […] For the results to be considered reliable, the no growth of organisms was accepted in the negative control well, while the positive control well had to have sufficient growth to be read. In some embodiments of the present invention, to confirm the presence or absence of growing spirochetes in the growth well, aliquots from the growth well were reinoculated with fresh growth media and after an incubation time (e.g., 7-10 days) the presence of the organisms was confirmed (e.g., by phase contrast microscopy or direct fluorescent antibody staining).
as §1
This example describes an antimicrobial susceptibility test performed for a human patient. The patient had previously been testing using GSI-1 medium (e.g., as described in Example 2) for the presence of any spirochetes. […] This culture sample was then transferred to a microcentrifuge tube, and a pellet for antimicrobial susceptibility testing was prepared as described in Example 6.
as §2, with “well). Table 2 below lists the various antimicrobials tested with this sample and whether growth of the organism was inhibited (susceptible) or whether the growth of the organism was not inhibited (resistant).” for “well).”

[3] = tested on: Leptospira; assay: Susceptibility testing of Leptospira isolated from a patient with symptoms of multiple sclerosis; conditions: for Antibiotic Susceptibility Results, SERUM: Leptospira culture from serum of multiple sclerosis patient; for Antibiotic Susceptibility Results, URINE: Leptospira culture from urine of multiple sclerosis patient
Method: This example describes the preparation of a pellet used for antimicrobial susceptibility testing of a culture sample. […] In order to form pellet, an aliquot of this culture sample is placed in a microcentrifuge tube along with 10% SDS solution, and centrifuged at 14,000 g to disrupt the spirochetes and maximize the number of available eptiopic sites. […] This inoculated alternative growth medium was then allowed to incubate in the closed micro centrifuge tube until a distinctive pellet was observed (typically 7-14 days).
MICROSCAN antibiotic susceptibility microtiter plates were then inoculated with (e.g., 110 μl of) inoculum and allowed to incubate at 35° C. for 16-20 hours. The microtiter plates were then scanned for growth and respective sensitivity reaction (both the control well and the growth well).

[4] = tested on: E. coli; assay: Antibiotic susceptibility test (MICROSCAN or disc diffusion), control organism E. coli; conditions: total isolates 1
[5] = tested on: Borrelia; assay: Antibiotic susceptibility test (MICROSCAN or disc diffusion) of patient samples positive for Borrelia; conditions: total isolates 519
Description: as §1
as §2, with “well). Table 2 below lists the various antimicrobials tested with this sample and whether growth of the organism was inhibited (susceptible) or whether the growth of the organism was not inhibited (resistant).” for “well).”
(§3) This Example describes the results for susceptibility tests that were performed on a large number of patient samples positive for either Borrelia or Leptospira. […] The results presented in Table 3 reveal the varied response of different types of spirochetes to different antibiotics.

[6] = tested on: Leptospira; assay: Antibiotic susceptibility test (MICROSCAN or disc diffusion) of patient samples positive for Leptospira; conditions: total isolates 276
Description: as §1
as §2, with “well). Table 2 below lists the various antimicrobials tested with this sample and whether growth of the organism was inhibited (susceptible) or whether the growth of the organism was not inhibited (resistant).” for “well).”
as §3

[7] = tested on: Tatumella; assay: Antibiotic susceptibility test (MICROSCAN or disc diffusion), control organism Tatumella; conditions: total isolates 2
Description: as §1
as §2, with “well). Table 2 below lists the various antimicrobials tested with this sample and whether growth of the organism was inhibited (susceptible) or whether the growth of the organism was not inhibited (resistant).” for “well).”
as §3

[8] = tested on: Y. entero gp.; assay: Antibiotic susceptibility test (MICROSCAN or disc diffusion), control organism Y. entero gp.; conditions: total isolates 1
[9] = tested on: Pseudomonas; assay: Antibiotic susceptibility test (MICROSCAN or disc diffusion), control organism Pseudomonas; conditions: total isolates 1

Molecule	Antibiotic Susceptibility Results, SERUM [1]	Antibiotic Susceptibility Results, URINE [1]	RESULT (antibiotic susceptibility) [2]	Antibiotic Susceptibility Results, SERUM [3]	Antibiotic Susceptibility Results, URINE [3]	other results
Penicillin	Resistant	Resistant	–	–	–	–
CC(=O)OCC1=C(C(=O)O)N2C(=O)[C@@H](NC(=O)Cc3cccs3)[C@H]2SC1 [Cephalothin]	–	–	Susceptible	–	–	–
CN(C)[C@@H]1C(O)=C(C(N)=O)C(=O)[C@@]2(O)C(O)=C3C(=O)c4c(O)cccc4[C@@](C)(O)[C@H]3C[C@@H]12 [Tetracycline]	Resistant	Resistant	Resistant	Resistant	Resistant	–
CCC[C@@H]1C[C@@H](C(=O)N[C@@H]([C@H]2O[C@H](SC)[C@H](O)[C@@H](O)[C@H]2O)[C@H](C)Cl)N(C)C1 [Clindamycin]	Resistant	Resistant	–	Resistant	Resistant	–
CC1(C)S[C@@H]2[C@H](NC(=O)[C@H](C(=O)O)c3ccsc3)C(=O)N2[C@H]1C(=O)O [Ticarcillin]	–	–	Susceptible	–	–	–
CO/N=C(\C(=O)N[C@@H]1C(=O)N2C(C(=O)O)=C(COC(N)=O)CS[C@H]12)c1ccco1 [Cefuroxime]	Resistant	Resistant	–	Resistant	Resistant	Antibiotic Susceptibility Test Results, E. coli [4]: 100%; Antibiotic Susceptibility Test Results, Borrelia [5]: 59%; Antibiotic Susceptibility Test Results, Leptospira [6]: 59%; Antibiotic Susceptibility Test Results, Tatumella [7]: 0%; Antibiotic Susceptibility Test Results, Y. entero gp. [8]: 100%
Cc1nnc(SCC2=C(C(=O)O)N3C(=O)[C@@H](NC(=O)Cn4cnnn4)[C@H]3SC2)s1 [Cefazolin]	–	–	Resistant	–	–	–
CO[C@H]1/C=C/O[C@@]2(C)Oc3c(C)c(O)c4c(O)c(c(/C=N/N5CCN(C)CC5)c(O)c4c3C2=O)NC(=O)/C(C)=C\C=C\[C@H](C)[C@H](O)[C@@H](C)[C@@H](O)[C@@H](C)[C@H](OC(C)=O)[C@@H]1C [Rifampin]	Resistant	Resistant	–	Resistant	Resistant	–
CC1(C)S[C@@H]2[C@H](NC(=O)[C@H](N)c3ccccc3)C(=O)N2[C@H]1C(=O)O [Ampicillin]	Resistant	Resistant	Susceptible	Resistant	Resistant	Antibiotic Susceptibility Test Results, E. coli [4]: 100%; Antibiotic Susceptibility Test Results, Borrelia [5]: 61%; Antibiotic Susceptibility Test Results, Leptospira [6]: 54%; Antibiotic Susceptibility Test Results, Tatumella [7]: 100%; Antibiotic Susceptibility Test Results, Y. entero gp. [8]: 100%
CCN[C@@H]1C[C@H](N)[C@@H](O[C@H]2OC(CN)=CC[C@H]2N)[C@H](O)[C@H]1O[C@H]1OC[C@](C)(O)[C@H](NC)[C@H]1O [Netilmicin]	–	–	Resistant	–	–	–
CC[C@H]1OC(=O)[C@H](C)[C@@H](O[C@H]2C[C@@](C)(OC)[C@@H](O)[C@H](C)O2)[C@H](C)[C@@H](O[C@@H]2O[C@H](C)C[C@H](N(C)C)[C@H]2O)[C@](C)(O)C[C@@H](C)CN(C)[C@H](C)[C@@H](O)[C@]1(C)O [Azithromycin]	Resistant	Resistant	–	Resistant	Resistant	–
Piperacillin/Tazobactam	Intermediate	Intermediate	–	Intermediate	Intermediate	Antibiotic Susceptibility Test Results, Pseudomonas [9]: 100%; Antibiotic Susceptibility Test Results, E. coli [4]: 100%; Antibiotic Susceptibility Test Results, Borrelia [5]: 88%; Antibiotic Susceptibility Test Results, Leptospira [6]: 86%; Antibiotic Susceptibility Test Results, Tatumella [7]: 100%; Antibiotic Susceptibility Test Results, Y. entero gp. [8]: 100%
Ampicillin/Sulbactam	–	–	Susceptible	–	–	–
CCn1cc(C(=O)O)c(=O)c2cc(F)c(N3CCNCC3)cc21 [Norfloxacin]	–	Susceptible	–	–	Susceptible	–
CC[C@H]1OC(=O)[C@H](C)[C@@H](O[C@H]2C[C@@](C)(OC)[C@@H](O)[C@H](C)O2)[C@H](C)[C@@H](O[C@@H]2O[C@H](C)C[C@H](N(C)C)[C@H]2O)[C@](C)(OC)C[C@@H](C)C(=O)[C@H](C)[C@@H](O)[C@]1(C)O [Clarithromycin]	Resistant	Resistant	–	Resistant	Resistant	–
CC[C@H]1OC(=O)[C@H](C)[C@@H](O[C@H]2C[C@@](C)(OC)[C@@H](O)[C@H](C)O2)[C@H](C)[C@@H](O[C@@H]2O[C@H](C)C[C@H](N(C)C)[C@H]2O)[C@](C)(O)C[C@@H](C)C(=O)[C@H](C)[C@@H](O)[C@]1(C)O [Erythromycin]	Resistant	Resistant	–	Resistant	Resistant	–
Trimethoprim/Sulfamethoxazole	–	–	Resistant	Susceptible	Susceptible	–
CC1(C)S[C@@H]2[C@H](NC(=O)[C@H](NC(=O)N3CCN(S(C)(=O)=O)C3=O)c3ccccc3)C(=O)N2[C@H]1C(=O)O [Mezlocillin]	–	–	Susceptible	–	–	–
Trimethoprim Sulfate	Susceptible	Susceptible	–	–	–	–
